We go through two compounds from PMC10814725, “In Vitro Anti-Inflammatory Study of Limonoids Isolated from Chisocheton Plants” (Current Issues in Molecular Biology, 2024).

One data set has as its system TNF-α. The data set can be described thus: ELISA of TNF-α production in LPS-stimulated THP-1 cells. It counts as cell-based, human. The following applies: for IC50: LPS-stimulated (10 ng/mL) THP-1 cells, 1, 5, 10, 20 µM, 18 h, read-out: TNF-α IC50. (In general: ELISA stands for enzyme-linked immunosorbent assay.)
The next data set deals with IL-6. The data set can be described thus: ELISA of IL-6 production in LPS-stimulated THP-1 cells. Type of data set: cell-based, human. How it is done:
(§1) The logarithmic growth phase of THP-1 cells was achieved by seeding in 96-well plates at a density of 5 × 10^4 cells/well and differentiated for 24 h in the presence of PMA (0.5 μM solution in medium). After 24 h of incubation, the culture medium was removed from the 96-well plate and the cells were washed with PBS. […] The cells were pretreated with 17 limonoids at the corresponding concentration for 1 h, followed by the addition of LPS (10 ng/mL) and then incubation at 37 °C for 18 h. Finally, 50 μL of each culture supernatant solution was taken to determine the concentrations of IL-6, MCP-1, and IL-1β using the corresponding commercially available human ELISA kits following the manufacturer’s instructions. The analyte concentration in the supernatant was measured in pg/mL, and the inhibition level was expressed as a fold change compared to the LPS (−) control group. To determine the IC50 value, the dose-response data were normalized to the LPS-stimulated-only group, and the percentage of inhibition was calculated using the following formula: % Inhibition=(Absorbance of LPS+ control−Absorbance of compound treatment with LPS)/(Absorbance of LPS+ control−Absorbance of LPS− control)×100
(§2) Furthermore, the % inhibition data were interpolated into linear equations to determine the IC50 values.

Another data set has as its system IL-1β. As to the kind of experiment: ELISA of IL-1β production in LPS-stimulated THP-1 cells. Type of data set: cell-based, human. The following applies: 10 µM, compared to LPS (+)-stimulated group. As for the experimental part: (§3) The logarithmic growth phase of THP-1 cells was achieved by seeding in 96-well plates at a density of 5 × 10^4 cells/well and differentiated for 24 h in the presence of PMA (0.5 μM solution in medium). After 24 h of incubation, the culture medium was removed from the 96-well plate and the cells were washed with PBS. Fresh RPMI-1640 medium supplemented with 0.1% FBS and 1% Penicillin–Streptomycin was added to each well and incubated at 37 °C overnight. The cells were pretreated with 17 limonoids at the corresponding concentration for 1 h, followed by the addition of LPS (10 ng/mL) and then incubation at 37 °C for 18 h. Finally, 50 μL of each culture supernatant solution was taken to determine the concentrations of IL-6, MCP-1, and IL-1β using the corresponding commercially available human ELISA kits following the manufacturer’s instructions. The analyte concentration in the supernatant was measured in pg/mL, and the inhibition level was expressed as a fold change compared to the LPS (−) control group. To determine the IC50 value, the dose-response data were normalized to the LPS-stimulated-only group, and the percentage of inhibition was calculated using the following formula: % Inhibition=(Absorbance of LPS+ control−Absorbance of compound treatment with LPS)/(Absorbance of LPS+ control−Absorbance of LPS− control)×100
as §2

In another data set the test system is MCP-1. The data set can be described thus: ELISA of MCP-1 production in LPS-stimulated THP-1 cells. It counts as cell-based, human. To be noted: 10 µM, compared to LPS (+)-stimulated group, THP-1 cells. As for the experimental part: as §1, §2
Data set [1] can be described thus: Cell viability by CCK-8, HEK-Blue hTLR4 cells. The following applies: human. It counts as cell-based. As for the experimental part: (§4) The viability of HEK-Blue^TM hTLR4, […], and THP-1 cells was evaluated using the Dojindo Cell Counting Kit-8 (CCK-8) according to the manufacturer’s instructions. The viability of HEK-Blue^TM hTLR4 and THP-1 cells was assessed under identical conditions to the corresponding assay treatments. HEK-Blue^TM hTLR4 cells (2 × 10^4 cells/well) were seeded in 96-well plates and serum-starved for 24 h at 37 °C in a 5% CO2 atmosphere. After incubation, the culture medium was aspirated, and the cells were washed with saline. High-glucose D-MEM supplemented with 0.1% FBS and 1% penicillin–streptomycin was added and pretreated with or without the 17 limonoids at a concentration of 20 µM for 1 h, followed by LPS addition at a concentration of 10 ng/mL. After 18 h of incubation, a 10% (v/v) CCK-8 solution was added to each well and incubated at 37 °C for 1 h, and cell viability was calculated.

A short description of data set [2]: Cell viability by CCK-8, THP-1 cells. Type of data set: cell-based. To be noted: human, PMA-differentiated THP-1 cells. How it is done: as §4
The THP-1 cells at 5 × 10^4 cells/well were differentiated for 24 h in the presence of PMA (0.5 μM solution in medium). After 24 h of incubation, the culture medium was removed from the 96-well plate and the cells were washed with PBS. Fresh RPMI-1640 medium supplemented with 0.1% FBS and 1% penicillin–streptomycin was added to each well and incubated at 37 °C for overnight. The cells were pretreated with 17 limonoids at the corresponding concentration for 1 h followed by the addition of LPS (10 ng/mL) and incubated at 37 °C for 18 h. Furthermore, CCK-8 solution was added to each well with a final concentration was 10% (v/v) and incubated at 37 °C. After 1 h, the absorbance of each well was measured at […] by using a microplate reader (BioTek Cytation 5 Cell Imaging Multimode Reader). Cell viability was calculated using the following formula: % Cell viability=(Absorbance of sample−Absorbance of Background)/(Absorbance of control−Absorbance of Background)×100 where the absorbance of the sample is the absorbance of cells treated by the compound with or without LPS, the absorbance of the control is the absorbance of LPS (−)-treated cells, and the background absorbance is the absorbance of a well containing only the medium. The results were expressed as 100% cell viability.

The next data set deals with phosphorylated-p38 MAPK. As to the kind of experiment: Western blotting of phosphorylated-p38 MAPK in LPS-stimulated THP-1 cells. It counts as cell-based, human. To be noted: 10 µM, LPS 10 ng/mL, 18 h, compared to LPS (+) group. How it is done: THP-1 cells were seeded at a density of 1 × 10^6 cells/well in 24-well plates. The cells were then pretreated with a concentration of 10 µM of compounds 3, 5, 9, or 15 for 1 h. Subsequently, LPS (10 ng/mL) was added to the cells, which were incubated for 18 h. The protein concentrations were determined using a bicinchoninic acid (BCA) assay kit.
For Western blot analysis, proteins were separated by SDS-PAGE and transferred onto a polyvinylidene fluoride (PVDF) membrane. The membranes were blocked with 2.5% BSA in Tris-buffered saline-Tween (TBST) for 1 h at room temperature. After three washes with TBST, the membranes were incubated with a diluted primary antibody solution (anti-phosphorylated-p38 MAPK or anti-p38 MAPK) at a 1:1000 dilution for 1 h at room temperature. After three washes with TBS-T, the membranes were incubated with a secondary antibody conjugated to horseradish peroxidase (HRP; 1:4000 dilution) for 30 min at room temperature and subsequently detected by chemiluminescence. Finally, the bands were visualized and quantified using an ImageQuant 800 GxP system (Cytiva, MA, USA). The results were expressed as ratios relative to the reference protein β-actin.

A further data set is described as follows: in vitro. It counts as cell-based. To be noted: mouse. As for the experimental part: as §4
The test system of data set [3] is TNF-α, IL-6, IL-1β, and MCP-1. As to the kind of experiment: ELISA of pro-inflammatory markers overall (TNF-α, IL-6, IL-1β, MCP-1) in LPS-stimulated THP-1 cells. The following applies: Homo sapiens, read-out: Overall IC50 values for the evaluated pro-inflammatory markers. Type of data set: cell-based. As for the experimental part: as §3, §2
Data set [4] deals with TLR4-dependent NF-kB activation in HEK-Blue hTLR4 cells. As to the kind of experiment: SEAP reporter gene assay, antagonist effect on LPS-stimulated TLR4-dependent NF-κB activation. Type of data set: cell-based, human. The following applies: 20 µM, LPS 10 ng/mL, 18 h, vs. LPS stimulated-only group. As for the experimental part:
(§5) The SEAP Reporter Gene Assay was conducted as previously described. HEK-Blue^TM hTLR4 cells (2 × 10^4 cells/well) were seeded in 96-well plates and were serum-starved for 24 h at 37 °C in a 5% carbon dioxide atmosphere. After incubation, the culture medium was aspirated, and the cells were washed with saline. High-glucose D-MEM supplemented with 0.1% FBS and 1% penicillin-streptomycin was added and treated with or without the 17 limonoids at a concentration of 20 µM for 1 h, followed by LPS addition at a concentration of 10 ng/mL for the LPS-stimulated group. After incubation at 37 °C for 18 h, the supernatants were collected and PNPP in PBS solution (0.8 mM, 100 μL) was added, followed by 4 h of shading at 25 °C. The optical density (OD) of the samples was measured at 405 nm using a microplate reader (BioTek Cytation 5 Cell Imaging Multimode Reader, Agilent Technologies, Santa Clara, CA, USA).
For orientation: A reporter such as luciferase makes a cellular process visible.

Data set [5] concerns NF-κB activation in HEK-Blue hTLR4 cells. As to the kind of experiment: SEAP reporter gene assay, agonist effect on NF-κB activation (without LPS). Type of data set: cell-based, human. To be noted: 20 µM, compared to LPS (−)-treated cells. How it is done: as §5
[6] abbreviates: 10 µM, compared to LPS (+)-stimulated group, THP-1 cells.
Where [7] appears, read: Viability Cell (%) HEK-Blue hTLR4 LPS-Induced (10 ng/mL).
The mark [8] stands for this setting: Viability Cell (%) HEK-Blue hTLR4 Without LPS.
The mark [9] stands for this setting: LPS 10 ng/mL, read-out: Viability Cell (%) THP-1 LPS-Induced (10 ng/mL).
[10] abbreviates: without LPS, read-out: Viability Cell (%) THP-1 Without LPS.

A word on the IC50: it is the point on the concentration scale where inhibition reaches its midpoint. As usually defined, the CC50 is the concentration giving 50% cytotoxicity. A lower CC50 goes with harm at low concentration.

Like-named read-outs stand apart in the source and are kept apart here.

For the compound `CC(=O)O[C@@H]1[C@H](O)[C@H]2C(C)(C)C(=O)C=C[C@]2(C)[C@H]2CC[C@]3(C)C(=CC[C@H]3c3ccoc3)[C@]12C` [Compound 9, nimonol], the “Effect on TNF-α level” value with TNF-α (setting [6]) is reported as “significantly reduced”. For the same compound, the IC50 was under 3 µM with TNF-α (Homo sapiens, THP-1, 18 h); 2.15 µM with TNF-α; under 20 µM in [3]. Further, the “TNF-α SI (selectivity index, CC50/IC50)” value in the data set on TNF-α (THP-1 CC50 / TNF-α IC50) stood at 49.92. Besides, in the data set with IL-6 (setting [6]), the “Effect on IL-6 level” value is “significantly reduced”. For the same compound, in the data set with IL-6 (THP-1 CC50 / IL-6 IC50), the “IL-6 SI (selectivity index, CC50/IC50)” value came to 94.98. In addition, the “Effect on IL-1β level” value with IL-1β is given as “significantly reduced”. For the same compound, the “Effect on MCP-1 level” value in the data set with MCP-1 is “significantly reduced”. Further, the values for the viability at 18 h, 20 µM in [1] (setting [7]) and in data set [1] (setting [8]) were 74.8 ± 6.22% and over 99.9%, respectively. Moreover, the viability at 18 h, 10 µM was 83.9 ± 7.6% in data set [2] (setting [9]) and over 99.9% in [2] (setting [10]). In addition, the 50% cytotoxic concentration (CC50) at 18 h in data set [2] (concentration causing 50% cytotoxicity against THP-1 cells) is 107 µM. Further, the “Effect on p-p38 MAPK levels” value with phosphorylated-p38 MAPK is given as “significantly suppressed”. The same compound came in with a viability at 5 µM in “in vitro” of 93.8 ± 1.86%. The viability at 10 µM in the data set “in vitro” is 89.9 ± 2.44%. In “in vitro”, this compound gave a viability at 20 µM of 79.4 ± 10.2%.

Consider `CC1(C)C(=O)C=CC2(C)C1=C(O)C(=O)C1(C)C2(O)C(O)CC2(C)C(c3ccoc3)CC3OC321` (stereo not shown) [Compound 17, pentandricine G], for which the “Inhibition of SEAP release (NF-κB activity inhibition)” value in data set [4] is reported as “significantly inhibited SEAP release”. For the same compound, in data set [5], the “Agonist effect on NF-κB activation” value is “weak agonist effect”. Further, the viability at 18 h, 20 µM in data set [1] (setting [7]) was 64.2 ± 9.05%; in data set [1] (setting [8]), over 99.9%. Also, the viability at 18 h, 10 µM in data set [2] (setting [9]) is over 99.9%; in data set [2] (setting [10]), 87.3 ± 4.18%. This compound gave a viability at 5 µM in “in vitro” of 77.5 ± 10.2%. This compound yielded a viability at 10 µM in the data set “in vitro” of 72.2 ± 4.68%. This compound also came in with a viability at 20 µM in the data set “in vitro” of 73.1 ± 2.02%. In data set [3], the 50% inhibitory concentration (IC50) is under 20 µM.
